According to paper PMC3914206:

How the values were obtained:
Type in all cases: binding
Details in all cases: Compound Concentration 10 µM
[1] = biological target: T1, panel of 442 kinases (Homo sapiens, UniProt P42336, I800L)
T1 construct: purchased KINOMEscan
Description: (§1) We assessed the selectivity of members of this scaffold using the KINOMEscan methodology across a near comprehensive panel of 442 kinases [[18,27]].

[2] = biological target: T2, panel of 442 kinases (Homo sapiens, UniProt Q16816)
T2 construct: purchased KINOMEscan
Description: as §1

[3] = biological target: T3, panel of 442 kinases (Homo sapiens, UniProt Q9Y463)
T3 construct: purchased KINOMEscan
Description: as §1

[4] = biological target: T4, panel of 442 kinases (Homo sapiens, UniProt P49760)
T4 construct: purchased KINOMEscan
Description: as §1

T3 sequence (Q9Y463 whole entry): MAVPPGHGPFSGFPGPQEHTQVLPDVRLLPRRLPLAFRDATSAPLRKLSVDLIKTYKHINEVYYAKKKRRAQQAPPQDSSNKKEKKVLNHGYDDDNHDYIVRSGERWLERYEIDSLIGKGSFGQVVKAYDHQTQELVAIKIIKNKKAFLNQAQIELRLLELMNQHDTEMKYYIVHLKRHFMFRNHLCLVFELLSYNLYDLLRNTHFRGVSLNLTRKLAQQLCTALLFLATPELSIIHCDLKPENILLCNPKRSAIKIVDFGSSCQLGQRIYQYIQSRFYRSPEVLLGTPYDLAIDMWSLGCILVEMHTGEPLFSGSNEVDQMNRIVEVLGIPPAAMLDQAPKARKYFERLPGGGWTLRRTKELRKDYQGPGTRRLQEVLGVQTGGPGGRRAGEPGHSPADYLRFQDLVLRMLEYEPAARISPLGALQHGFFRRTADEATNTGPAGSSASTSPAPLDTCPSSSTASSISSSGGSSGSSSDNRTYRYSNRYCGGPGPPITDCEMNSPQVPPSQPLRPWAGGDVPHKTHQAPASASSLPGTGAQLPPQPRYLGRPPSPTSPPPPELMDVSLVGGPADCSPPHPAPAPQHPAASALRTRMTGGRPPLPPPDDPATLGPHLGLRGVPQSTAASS
T1 sequence (P42336 whole entry I800L): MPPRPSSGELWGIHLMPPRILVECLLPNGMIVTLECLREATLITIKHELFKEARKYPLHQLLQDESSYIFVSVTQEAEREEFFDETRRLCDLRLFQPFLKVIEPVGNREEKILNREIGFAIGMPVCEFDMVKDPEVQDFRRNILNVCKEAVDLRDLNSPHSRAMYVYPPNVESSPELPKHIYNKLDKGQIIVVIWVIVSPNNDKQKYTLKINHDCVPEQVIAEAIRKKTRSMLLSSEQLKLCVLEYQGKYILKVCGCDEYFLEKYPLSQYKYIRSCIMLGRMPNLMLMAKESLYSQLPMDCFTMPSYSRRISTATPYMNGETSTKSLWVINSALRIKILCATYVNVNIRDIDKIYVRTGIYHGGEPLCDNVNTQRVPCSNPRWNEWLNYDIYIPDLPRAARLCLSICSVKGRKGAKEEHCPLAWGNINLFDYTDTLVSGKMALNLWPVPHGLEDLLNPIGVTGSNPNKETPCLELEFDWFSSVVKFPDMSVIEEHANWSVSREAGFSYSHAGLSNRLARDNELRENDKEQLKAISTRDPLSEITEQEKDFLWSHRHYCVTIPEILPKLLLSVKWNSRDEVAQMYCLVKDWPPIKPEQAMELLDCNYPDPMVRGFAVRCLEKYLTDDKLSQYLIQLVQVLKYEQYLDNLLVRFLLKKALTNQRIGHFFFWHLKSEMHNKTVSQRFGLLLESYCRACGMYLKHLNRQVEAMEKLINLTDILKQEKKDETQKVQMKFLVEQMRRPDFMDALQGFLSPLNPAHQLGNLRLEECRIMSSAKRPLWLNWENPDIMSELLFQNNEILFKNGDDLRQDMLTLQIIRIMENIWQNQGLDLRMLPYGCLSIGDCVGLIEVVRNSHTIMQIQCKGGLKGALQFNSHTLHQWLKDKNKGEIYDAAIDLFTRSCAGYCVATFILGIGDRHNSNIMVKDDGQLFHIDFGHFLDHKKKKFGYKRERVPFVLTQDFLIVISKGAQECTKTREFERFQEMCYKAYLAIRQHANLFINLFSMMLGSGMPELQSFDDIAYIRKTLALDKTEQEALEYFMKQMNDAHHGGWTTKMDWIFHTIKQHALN
T4 sequence (P49760 whole entry): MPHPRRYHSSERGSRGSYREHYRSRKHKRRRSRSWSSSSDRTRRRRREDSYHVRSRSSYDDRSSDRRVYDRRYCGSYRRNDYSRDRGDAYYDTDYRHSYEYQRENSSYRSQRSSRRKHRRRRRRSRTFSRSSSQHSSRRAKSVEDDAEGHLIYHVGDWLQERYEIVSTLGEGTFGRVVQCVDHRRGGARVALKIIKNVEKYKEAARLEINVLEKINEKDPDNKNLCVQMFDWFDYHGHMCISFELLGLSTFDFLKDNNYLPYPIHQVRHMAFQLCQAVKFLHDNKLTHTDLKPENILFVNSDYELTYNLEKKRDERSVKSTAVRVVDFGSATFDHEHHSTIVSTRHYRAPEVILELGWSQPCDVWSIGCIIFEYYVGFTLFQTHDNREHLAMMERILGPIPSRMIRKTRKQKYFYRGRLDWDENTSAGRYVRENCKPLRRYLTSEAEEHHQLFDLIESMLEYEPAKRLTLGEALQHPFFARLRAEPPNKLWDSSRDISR
T2 sequence (Q16816 whole entry): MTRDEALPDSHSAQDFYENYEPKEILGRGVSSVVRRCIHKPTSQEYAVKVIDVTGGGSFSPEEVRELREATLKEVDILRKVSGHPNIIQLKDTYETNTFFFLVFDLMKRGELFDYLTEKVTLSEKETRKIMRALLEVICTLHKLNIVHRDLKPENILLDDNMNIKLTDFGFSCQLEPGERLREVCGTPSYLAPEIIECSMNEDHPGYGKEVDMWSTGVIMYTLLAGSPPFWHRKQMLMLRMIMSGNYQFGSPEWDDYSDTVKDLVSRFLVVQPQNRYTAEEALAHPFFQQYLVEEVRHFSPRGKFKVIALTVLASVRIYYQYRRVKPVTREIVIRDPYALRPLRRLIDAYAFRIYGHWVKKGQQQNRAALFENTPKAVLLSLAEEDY

Compound | KINOMEscan: PIK3CA(I800L) [1] | KINOMEscan: PHKG1 [2] | KINOMEscan: DYRK1B [3] | KINOMEscan: CLK2 [4]
COc1cc(C(=O)N2CCC(N3CCN(C)CC3)CC2)ccc1Nc1ncc2c(n1)N(C)c1ccccc1C(=O)N2C [15 (LRRK2-IN-1)] | 38 | 54 | 94 | 72
COc1cc(C(=O)N2CCC(N3CCN(C)CC3)CC2)ccc1Nc1ncc2c(n1)N1CCc3cccc(c31)C(=O)N2C [Compound 24] | 64 | 75 | – | 25
COc1cc(C(=O)N2CCC(N3CCN(C)CC3)CC2)ccc1Nc1ncc2c(n1)N(C1CCCC1)c1ccccc1C(=O)N2C [Compound 25, 11-cyclopentyl-2-((2-methoxy-4-(4-(4-methylpiperazin-1-yl)piperidine-1-carbonyl)phenyl)amino)-5-methyl-5H-benzo[e]pyrimido[5,4-b][1,4]diazepin-6(11H)-one] | 100 | 100 | 69 | 79
CCOc1cc(C(=O)N2CCC(N3CCN(C)CC3)CC2)ccc1Nc1ncc2c(n1)N(C1CCCC1)c1ccccc1C(=O)N2C [Compound 26] | 75 | 100 | 71 | 86
